Numbered stars: 1 amine (or outer) side, 2 acyl side, 3 side chain; on linkers, the order of the positions; unused ones are H or OH. Bridge positions count the residues as written; N and C are the ends. Square brackets hold non-standard residues; d marks the D form. Side chains are listed from the residue outwards. Peptide text beside a SMILES is read from it. * marks the point of attachment. Trp(1-Me) = Cn1cc(C[C@H](N)C(=O)O)c2ccccc21; C18 diacid = O=C(O)CCCCCCCCCCCCCCCCC(=O)*; γGlu = O=C(O)[C@H](CCC(=O)[*:2])N[*:1]; AEEA = NCCOCCOCC(=O)O; CH2 = C([*:1])[*:2]; Sar = CNCC(=O)O
How the values were obtained:
[1] = target: T1, Human C3 (Homo sapiens, UniProt P01024); assay: Affinity measurement by surface plasmon resonance with immobilized C3; settings: SPR, immobilized human C3, 25° C., 1:1 Langmuir binding model, n=>2
T1 construct: purchased Complement tech A113c
Description: Surface plasmon resonance (SPR) was used to characterize peptides with respect to their binding affinity (Kd) for C3.
For interaction experiments, a multi-cycle experiment approach was used and performed using a BiacoreX100™ instrument (GE Healthcare) at 25° C. Peptides were injected in increasing concentration series (5 different concentrations and buffer reference) for 180 seconds at a flow rate of 30 μL/min in a buffer consisting of 50 mM Tris buffer at pH 7.4, with 150 mM NaCl and 0.05% Tween20. This was followed by a dissociation period for 10 min. The C3 surface was regenerated between runs by two consecutive injections of 3 M MgCl2 each for 45 seconds.
Sensorgrams were double-referenced (reference surface, blanks) prior to analysis of the kinetic profiles by globally fitting data to a 1:1 Langmuir binding model to obtain association and dissociation rates for calculation of the equilibrium dissociation constant Kd (Table 3). Each peptide was tested at in at least 2 independent experiments.

[2] = test system: classical complement pathway; assay: In vitro haemolysis assay (inhibition of classical complement pathway); assay type: cell-based; settings: human serum, sensitized sheep RBC, 30 minutes at 37° C., absorbance at 405 nm, n=>2; read-out: IC50, inhibition of hemolysis
Summary of the method: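 Compounds in 9-point serial dilution in Tris/casein buffer pH 7.4 (Ca2+/Mg2+) preincubated 15 min at room temperature with diluted human serum (dilution giving 70-90% maximal haemolysis), then antibody-sensitized sheep RBCs added, 30 min at 37° C. EDTA stop; supernatant haemoglobin read at 405 nm. IC50 from 4PL fit, normalized to controls, n≥2.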

| SMILES | Kd [1] [µM] | IC50 [2] [µM] |
| --- | --- | --- |
| CC[C@H](C)[C@@H]1NC(=O)[C@@H](NC(=O)[C@H](Cc2ccccc2)NC(=O)[C@H](C)NC(=O)[C@H](CO)NC(=O)[C@H](CCC(N)=O)NC(=O)CNC(C)=O)CSCSC[C@@H](C(=O)N[C@H](C(=O)N[C@@H](CCC(=O)O)C(=O)NCC(=O)N[C@@H](CCC(=O)O)C(=O)NCCOCCOCC(=O)NCCOCCOCC(=O)N[C@@H](CCCCNC(=O)CC[C@H](NC(=O)CNC(=O)CC[C@H](NC(=O)CCCCCCCCCCCCCCCCC(=O)O)C(=O)O)C(=O)O)C(N)=O)[C@@H](C)O)NC(=O)[C@H](CCCNC(=N)N)NC(=O)[C@H](Cc2c[nH]cn2)NC(=O)[C@H](CCC(=O)O)NC(=O)CN(C)C(=O)[C@H](Cc2c[nH]c3ccccc23)NC(=O)[C@H](CC(=O)O)NC(=O)[C@H](CCC(N)=O)NC(=O)[C@H](Cc2cn(C)c3ccccc23)NC1=O [Compound 28, Ac-GQSAF[C(1)]I[1-Me-Trp]QDW[Sar]EHR[C(1)]TEGE[Peg3][Peg3]-K([17-Carboxy-heptadecanoyl][yGlu]G[yGlu])-NH2] (Ac-GQSAFCI[Trp(1-Me)]QDW[Sar]EHRCTEGE[AEEA][AEEA]K([γGlu-Gly-γGlu-C18 diacid])-NH2; linker 6-16 via CH2) | 0.015 | < 0.1 |
| CC[C@H](C)[C@@H]1NC(=O)[C@@H](NC(=O)[C@H](Cc2ccccc2)NC(=O)[C@@H](NC(=O)CNC(=O)[C@H](CO)NC(=O)[C@@H](N)CCC(=O)O)C(C)C)CSCSC[C@@H](C(=O)N[C@H](C(=O)N[C@@H](CCC(=O)O)C(=O)NCC(=O)N[C@@H](CCC(=O)O)C(=O)NCCOCCOCC(=O)NCCOCCOCC(=O)N[C@@H](CCCCNC(=O)CC[C@H](NC(=O)CNC(=O)CC[C@H](NC(=O)CCCCCCCCCCCCCCCCC(=O)O)C(=O)O)C(=O)O)C(N)=O)[C@@H](C)O)NC(=O)[C@H](CCCNC(=N)N)NC(=O)[C@H](Cc2c[nH]cn2)NC(=O)[C@H](CCC(=O)O)NC(=O)CN(C)C(=O)[C@H](Cc2c[nH]c3ccccc23)NC(=O)[C@H](CC(=O)O)NC(=O)[C@H](CCC(N)=O)NC(=O)[C@H](Cc2cn(C)c3ccccc23)NC1=O [Compound 29, H-ESGVF[C(1)]I[1-Me-Trp]QDW[Sar]EHR[C(1)]TEGE[Peg3][Peg3]-K([17-Carboxy-heptadecanoyl][yGlu]G[yGlu])-NH2] (H-ESGVFCI[Trp(1-Me)]QDW[Sar]EHRCTEGE[AEEA][AEEA]K([γGlu-Gly-γGlu-C18 diacid])-NH2; linker 6-16 via CH2) | 0.015 | < 0.1 |

From patent US20230287051A1, “INHIBITORS OF COMPLEMENT FACTOR C3 AND THEIR MEDICAL USES” (ZP SPV 3 K/S, priority 2020, published 2023)
